Experimental data published in patent US11339160B2, “Imidazole and triazole containing bicyclic compounds as JAK inhibitors” (THERAVANCE BIOPHARMA R&D IP, LLC, priority 2019, dated 2022).

Experiments:
[1] = tested on: IL-2 stimulated STAT5 phosphorylation in CD4+ T cells isolated from murine splenocytes; assay: Inhibition of IL-2 stimulated pSTAT5 in CD4+ T cells isolated from murine splenocytes; format: cell-based; settings: Mus musculus, IL-2 7 ng/ml, read-out: pIC50, inhibition of IL-2 stimulated pSTAT5 (converted)
Description: Assay 3: Inhibition of IL-2 Stimulated pSTAT5 in CD4+ T Cells Isolated from Murine Splenocytes
The potency of test compounds for inhibition of interleukin-2 (IL-2) stimulated STAT5 phosphorylation was measured in the CD4+ T cells isolated from murine splenocytes using AlphaLisa. Because IL-2 signals through JAK3, this assay provides a measure of JAK3 cellular potency in mouse.
Phosphorylated STAT5 was measured via the AlphaLISA SureFire Ultra pSTAT5 (Tyr694/699) kit (PerkinElmer).
CD4+ T cells were isolated from murine splenocytes via negative selection on a magnetic column (Miltnyi Biotec) and re-suspended in assay media (phenol red-free DMEM (Life Technologies) supplemented with 10% FBS (ATCC)). Cells were seeded at 50,000 cells/well in assay media (2 μL/well). Compounds were serially diluted in DMSO and diluted to 2× final concentration in assay media. Compound was added (4 μl/well) and the cells incubated at 37° C., 5% CO2 for 1 hour, followed by the addition of IL-2 (R&D Systems; final concentration 7 ng/ml) in pre-warmed assay media (2 μL) for 30 minutes. After cytokine stimulation, cells were lysed with 2 μl of 5× AlphaLisa Lysis Buffer (PerkinElmer). The lysate was shaken at 900 rpm for 10 minutes at room temperature (RT). Phosphorylated STAT5 was measured via the pSTAT5 AlphaLisa kit (PerkinElmer). Freshly prepared acceptor bead mixture was dispensed onto lysate (5 ul) under green filtered <100 lux light. Plates were shaken at 900 rpm for 2 mins, briefly spun down, and incubated for 2 hrs at RT in the dark. Donor beads were dispensed (5 μl) under green filtered <100 lux light. Plates were shaken at 900 rpm for 2 mins, briefly spun down, and incubated overnight at RT in the dark. Luminescence was measured with excitation at 689 nm and emission at 570 nm using an EnVision plate reader (PerkinElmer) under green filtered <100 lux light.
To determine the inhibitory potency of test compounds in response to IL-2, the average emission intensity of beads bound to pSTAT5 was measured in primary CD4+ T cells isolated from murine splenocytes. IC50 values were determined from analysis of the inhibition curves of signal intensity vs compound concentration. Data are expressed as pIC50 (negative decadic logarithm IC50) values (mean standard deviation).

[2] = target: JAK3 (Homo sapiens (Human), UniProt P52333); assay: Biochemical JAK3 kinase assay (LanthaScreen); settings: for JAK3 (pKi)-JAK1 (pKi): selectivity, difference of pKi values
JAK3, sequence (P52333 whole entry): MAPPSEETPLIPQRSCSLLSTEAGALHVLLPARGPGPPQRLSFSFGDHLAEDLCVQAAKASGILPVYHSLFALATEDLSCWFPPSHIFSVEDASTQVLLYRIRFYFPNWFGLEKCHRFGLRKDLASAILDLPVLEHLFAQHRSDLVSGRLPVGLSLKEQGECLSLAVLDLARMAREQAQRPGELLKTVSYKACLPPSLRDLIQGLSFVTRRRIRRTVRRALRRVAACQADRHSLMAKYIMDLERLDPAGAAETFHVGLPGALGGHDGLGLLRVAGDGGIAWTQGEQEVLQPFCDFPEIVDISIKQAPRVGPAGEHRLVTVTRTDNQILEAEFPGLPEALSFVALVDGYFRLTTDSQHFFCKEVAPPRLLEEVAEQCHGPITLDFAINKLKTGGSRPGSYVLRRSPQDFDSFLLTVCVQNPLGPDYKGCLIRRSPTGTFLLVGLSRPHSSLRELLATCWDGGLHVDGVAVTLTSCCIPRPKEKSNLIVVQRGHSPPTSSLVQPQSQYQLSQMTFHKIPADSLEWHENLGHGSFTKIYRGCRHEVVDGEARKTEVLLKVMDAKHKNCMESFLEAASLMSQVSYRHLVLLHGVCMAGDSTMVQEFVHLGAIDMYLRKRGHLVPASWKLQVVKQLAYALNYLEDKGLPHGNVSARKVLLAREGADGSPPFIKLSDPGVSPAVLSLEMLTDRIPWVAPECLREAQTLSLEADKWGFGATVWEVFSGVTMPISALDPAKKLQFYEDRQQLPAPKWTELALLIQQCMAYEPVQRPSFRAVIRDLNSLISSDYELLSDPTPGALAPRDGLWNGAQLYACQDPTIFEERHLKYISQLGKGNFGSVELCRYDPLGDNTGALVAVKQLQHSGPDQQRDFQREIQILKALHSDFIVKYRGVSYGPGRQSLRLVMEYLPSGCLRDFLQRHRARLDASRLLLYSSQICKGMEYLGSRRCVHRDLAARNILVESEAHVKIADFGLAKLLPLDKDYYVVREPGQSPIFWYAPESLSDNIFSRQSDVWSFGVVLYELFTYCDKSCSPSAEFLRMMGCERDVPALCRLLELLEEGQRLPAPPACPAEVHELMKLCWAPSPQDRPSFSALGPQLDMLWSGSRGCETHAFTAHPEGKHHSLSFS
Description: (§1) Assay 1: Biochemical JAK and Tyk2 Kinase Assays
(§2) A panel of four LanthaScreen JAK biochemical assays (JAK1, 2, 3 and Tyk2) were carried in a common kinase reaction buffer (50 mM HEPES, pH 7.5, 0.01% Brij-35, 10 mM MgCl2, and 1 mM EGTA). Recombinant GST-tagged JAK enzymes and a GFP-tagged STAT1 peptide substrate were obtained from Life Technologies.
Serially or discretely diluted compounds were pre-incubated with each of the four JAK enzymes and the substrate in white 384-well microplates (Corning) at ambient temperature for 1 h. ATP was subsequently added to initiate the kinase reactions in 10 μL total volume, with 1% DMSO. […] Kinase reactions were allowed to proceed for 1 hour at ambient temperature before a 10 μL preparation of EDTA (10 mM final concentration) and Tb-anti-pSTAT1 (pTyr701) antibody (Life Technologies, 2 nM final concentration) in TR-FRET dilution buffer (Life Technologies) was added. The plates were allowed to incubate at ambient temperature for 1 h before being read on the EnVision reader (Perkin Elmer). Emission ratio signals (520 nm/495 nm) were recorded and utilized to calculate the percent inhibition values based on DMSO and background controls.
(§3) For dose-response analysis, percent inhibition data were plotted vs. compound concentrations, and IC50 values were determined from a 4-parameter robust fit model with the Prism software (GraphPad Software). Results were expressed as pIC50 (negative logarithm of IC50) and subsequently converted to pKi (negative logarithm of dissociation constant, Ki) using the Cheng-Prusoff equation.

[3] = target: JAK1 (Homo sapiens (Human), UniProt P23458); assay: Biochemical JAK1 kinase assay (LanthaScreen); settings: 1 h pre-incubation, ATP at Km 25 μM; pKi from pIC50 by Cheng-Prusoff
JAK1, sequence (P23458 whole entry): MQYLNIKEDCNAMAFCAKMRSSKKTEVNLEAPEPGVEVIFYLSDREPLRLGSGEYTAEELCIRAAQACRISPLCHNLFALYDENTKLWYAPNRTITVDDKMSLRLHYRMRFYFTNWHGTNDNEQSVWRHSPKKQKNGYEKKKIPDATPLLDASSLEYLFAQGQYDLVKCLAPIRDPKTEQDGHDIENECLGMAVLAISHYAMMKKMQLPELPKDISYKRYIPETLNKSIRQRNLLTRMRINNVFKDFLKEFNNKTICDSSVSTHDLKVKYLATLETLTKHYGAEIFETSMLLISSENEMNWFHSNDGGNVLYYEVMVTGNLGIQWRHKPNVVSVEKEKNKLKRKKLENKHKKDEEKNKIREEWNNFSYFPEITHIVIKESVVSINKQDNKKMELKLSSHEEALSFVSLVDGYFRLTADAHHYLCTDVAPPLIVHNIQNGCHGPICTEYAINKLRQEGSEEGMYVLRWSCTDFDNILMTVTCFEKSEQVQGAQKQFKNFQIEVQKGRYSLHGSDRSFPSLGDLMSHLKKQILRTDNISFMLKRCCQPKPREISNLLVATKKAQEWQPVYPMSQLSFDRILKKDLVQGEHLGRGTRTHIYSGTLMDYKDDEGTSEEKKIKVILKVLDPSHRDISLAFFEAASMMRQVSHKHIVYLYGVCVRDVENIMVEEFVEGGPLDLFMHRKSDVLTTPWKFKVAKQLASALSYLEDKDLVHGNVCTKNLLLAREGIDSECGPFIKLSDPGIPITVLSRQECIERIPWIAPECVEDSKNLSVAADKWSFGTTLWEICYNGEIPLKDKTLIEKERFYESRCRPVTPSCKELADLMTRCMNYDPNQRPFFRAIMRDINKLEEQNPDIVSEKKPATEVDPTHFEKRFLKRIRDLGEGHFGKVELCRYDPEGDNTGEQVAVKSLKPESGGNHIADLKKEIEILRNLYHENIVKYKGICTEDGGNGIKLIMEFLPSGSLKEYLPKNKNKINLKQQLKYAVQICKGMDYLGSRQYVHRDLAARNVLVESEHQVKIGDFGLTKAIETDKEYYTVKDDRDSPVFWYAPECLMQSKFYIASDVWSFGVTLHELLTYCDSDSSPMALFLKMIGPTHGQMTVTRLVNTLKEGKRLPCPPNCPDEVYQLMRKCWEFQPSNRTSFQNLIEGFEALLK
Description: as §1, §2
Serially or discretely diluted compounds were pre-incubated with each of the four JAK enzymes and the substrate in white 384-well microplates (Corning) at ambient temperature for 1 h. ATP was subsequently added to initiate the kinase reactions in 10 μL total volume, with 1% DMSO. […] The plates were allowed to incubate at ambient temperature for 1 h before being read on the EnVision reader (Perkin Elmer). Emission ratio signals (520 nm/495 nm) were recorded and utilized to calculate the percent inhibition values based on DMSO and background controls.
as §3

[4] = tested on: Caco-2 cell monolayers; assay: Caco-2 permeation assay; settings: 5 μM, A to B, + Verapamil 25 μM; unit taken from the thresholds in the same block
Description: The Caco-2 permeation assay was performed to model the ability of test compounds to pass through the intestine and get into the blood stream after oral administration. The rate at which test compounds in solution permeate a cell monolayer designed to mimic the tight junction of human small intestinal monolayers was determined.
CacoReady 24-well transwell plates were obtained from ADMEcell (Alameda, Calif.). The compounds were evaluated at a concentration of 5 μM from 10 mM DMSO stock solutions in duplicate (n=2). The passive permeability of the compounds tested was evaluated using Caco-2 cell monolayers along with Verapamil (25 μM) to inhibit P-gp transport proteins in the apical to basolateral (A-B) direction. The experiment was conducted in a 37° C., 5% CO2 incubator. Caco-2 culture media consisted of standard filtered DMEM, FCS 10%, L-Glutamine 1% and PenStrep 1%. Basal assay plate was prepared by adding 750 μL of transport buffer to A-B wells. A CacoReady™ plate was prepared by removing the Caco-2 media from the apical wells and replacing with fresh transport media (200 μL repeated for a total of 3 washes). Blank media (200 μL) was then replaced with diluted compound for A-B wells. […] The permeation coefficient (Kp, mean A to B+Verapamil Papparent) in cm/sec was calculated as dQ (flux)/(dt×Area×concentration). […]

[5] = Colon and plasma mouse pharmacokinetics; format: in vivo; settings: male Balb/c mice, 10 mg/kg PO, 0.5, 2 and 6 h
Description: Assay 6: Colon and Plasma Mouse Pharmacokinetics
6 male Balb/c mice were administered 10 mg/kg of compound in 1% HPMC+0.1% Tween-80 by PO administration. At 0.5, 2 and 6 hours after dose administration, animals were anesthetized, and terminal blood samples were collected by cardiac puncture, followed by collection of colon contents and colon tissue.
Blood samples were collected into K2EDTA and stored on wet ice until processed to plasma by centrifugation (12,000 rpm at 4° C.). Plasma samples were transferred to cluster tubes and placed on dry ice prior to freezer storage. The colon contents from each animal were collected at each terminal blood collection time point. The colon tissues were flushed with saline and patted dry. The colon and colon content tissues were homogenized using sterile water containing 0.1% formic acid 9:1 (water:tissue, v/w). […] All samples were analyzed using LC/MS/MS against analytical standards.
The composite pharmacokinetic parameters of the compounds were determined by non-compartmental analysis using Phoenix WinNonlin Version 6 (Certara, St. Louis, Mo.) and using mean values from 2 animals/time point. For plasma concentrations below the quantification limit (BQL), the lowest concentration measurable or the BLOQ (below limit of quantification) was used.
A colon to plasma ratio was determined as the ratio of the colon AUC to the plasma AUC.

Structure (SMILES) | IC50 [1] | JAK3 (pKi)-JAK1 (pKi) [2] | other results
C=CC(=O)N1CC(COc2cc(-c3cc(Cl)c(O)c(OC)c3)cn3cncc23)C1 [Example 9, 1-(3-(((6-(3-chloro-4-hydroxy-5-methoxyphenyl)imidazo[1,5-a]pyridin-8-yl)oxy)methyl)azetidin-1-yl)prop-2-en-1-one] | < 1000 nM | A (a value of 3 or above) | 
C=CC(=O)N1CC(COc2cc(-c3ccc(O)cc3)cn3cncc23)C1 [Example 11, 1-(3-(((6-(4-hydroxyphenyl)imidazo[1,5-a]pyridin-8-yl)oxy)methyl)azetidin-1-yl)prop-2-en-1-one] | < 1000 nM | A (a value of 3 or above) | 
C=CC(=O)N1CC(COc2cc(-c3ccc(O)c(Cl)c3)cn3cncc23)C1 [Example 12, 1-(3-(((6-(3-chloro-4-hydroxyphenyl)imidazo[1,5-a]pyridin-8-yl)oxy)methyl)azetidin-1-yl)prop-2-en-1-one] | < 1000 nM | A (a value of 3 or above) | 
C=CC(=O)N1CC(COc2cc(-c3cc(F)c(O)cc3CC)cn3cncc23)C1 [Example 13, 1-(3-(((6-(2-ethyl-5-fluoro-4-hydroxyphenyl)imidazo[1,5-a]pyridin-8-yl)oxy)methyl)azetidin-1-yl)prop-2-en-1-one] | < 1000 nM | A (a value of 3 or above) | 
C=CC(=O)N1CC[C@@H](Oc2cc(-c3ccc(O)cc3)cn3cncc23)C[C@H]1C [Example 15, 1-((2R,4R)-4-((6-(4-hydroxyphenyl)imidazo[1,5-a]pyridin-8-yl)oxy)-2-methylpiperidin-1-yl)prop-2-en-1-one] | < 1000 nM | A (a value of 3 or above) | 
C=CC(=O)N1CCC(N(C)c2cc(-c3ccc(O)cc3)cn3cncc23)CC1 [Example 17] |  | B (a value of 2.3 to 3) | Ki ([2]; 1 h pre-incubation, ATP at Km 1.6 μM, pKi from pIC50 by Cheng-Prusoff, read-out: JAK 3 (pKi) (converted)): 1 to 10 nM; JAK 1 (pKi) [3]: E (a pKi value of 7 or below (Ki of 100 nM or above))
C=CC(=O)N1CC(COc2cc(-c3ccc(O)c(F)c3)cn3cncc23)C1 [Example 20] | < 1000 nM | A (a value of 3 or above) | 
CCc1cc(O)c(F)cc1-c1cc(OCC2CN(C(=O)/C=C/CN(C)C)C2)c2cncn2c1 [Example 24] | < 1000 nM | A (a value of 3 or above) | 
C=CC(=O)N1CC(C(C)(C)Oc2cc(-c3ccc(O)cc3)cn3cncc23)C1 [Example 28] | < 1000 nM | A (a value of 3 or above) | 
C=CC(=O)N1CC(COc2cc(-c3cc(F)c(O)c(Cl)c3)cn3cncc23)C1 [Example 31] | < 1000 nM | A (a value of 3 or above) | 
C=CC(=O)N1CC(COc2cc(-c3ccc(O)c(C)c3)cn3cncc23)C1 [Example 34] | < 1000 nM | A (a value of 3 or above) | 
C=CC(=O)N1C[C@H](Nc2ncnc3[nH]ccc23)CC[C@@H]1C [PF-06651600, 2-propen-1-one, 1-[(2S,5R)-2-methyl-5-(7H-pyrrolo[2,3-d]pyrimidin-4-ylamino)-1-piperidinyl]] |  |  | Kp value [4]: 25 ×10⁻⁶ cm/s; colon to plasma ratio (colon AUC to plasma AUC) [5]: 2.8
